In patent US20240025906A1 (NEURON23, INC., priority 2022, published 2024) one finds Kd and IC50 data, which are given here for 26 compounds.

Some results are limits rather than exact numbers.

The target of one test is T1, TYK2 JH2 (Homo sapiens, UniProt P29597).
T1 construct: purchased DiscoverX (KINOMEscan KdELECT service); host or cells: E. coli BL21-derived (T7 phage display) or HEK-293
In words: TYK2 JH2 binding assay (KINOMEscan KdELECT competitive binding). Conditions: TYK2 JH2 domain, KINOMEscan KdELECT (Assay A); read-out: Biochemical TYK2_DiscoverX_JH2_BND_Kd. In short, it runs like this: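 The assay measures displacement of DNA- or phage-tagged TYK2 pseudokinase domain from an affinity resin; compound binding lowers the amount captured, read by qPCR. Incubation lasts 1 h at room temperature.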

In test [1] the test system is JAK1/TYK2 pSTAT5 (Tyr694/699) in THP-1 cell line. Nature of the test: IFNa-stimulated JAK1/TYK2 pSTAT5 (Tyr694/699) inhibition cellular assay, AlphaLISA. The test is classed as cell-based. Conditions: Homo sapiens; THP-1 cells, IFNa-stimulated, AlphaLISA (Assay B); read-out: Cellular_THP1_IFNa-pSTATS_TYK2. The method in brief: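 THP-1 cells (2e4/well) in HBSS preincubated 1 h at 37° C. with compound (final 10000–0.04 nM, 8 points, 6-fold), then stimulated with IFNa (100 ng/mL stock) for 30 min before lysis. pSTAT5 (Tyr694/699) read by AlphaLISA at 615 nm; IC50 from four-parameter logistic fit with bottom fixed at 0 and Hill slope at −1.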
For orientation: In Alpha technology, singlet oxygen from a donor bead excites a nearby acceptor bead.

T1 sequence (P29597 589-875 limits assumed): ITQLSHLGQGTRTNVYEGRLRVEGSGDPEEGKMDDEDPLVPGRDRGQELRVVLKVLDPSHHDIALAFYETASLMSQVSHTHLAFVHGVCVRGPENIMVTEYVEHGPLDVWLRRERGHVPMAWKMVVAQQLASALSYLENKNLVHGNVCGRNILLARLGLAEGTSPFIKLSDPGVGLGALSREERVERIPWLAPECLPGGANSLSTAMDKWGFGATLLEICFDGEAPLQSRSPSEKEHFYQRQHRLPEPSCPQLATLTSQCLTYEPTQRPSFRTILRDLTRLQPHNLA

Take `CNc1ncc(C#Cc2ccc3nc(OC)n(C)c3c2)c2cc(NC(=O)C3CC3)ncc12` [Example 719, N-(5-((2-methoxy-1-methyl-1H-benzo[d]imidazol-6-yl)ethynyl)-8-(methylamino)-2,7-naphthyridin-3-yl)cyclopropanecarboxamide]: the Kd on TYK2 JH2 was not above 100 nM. For the same compound, in test [1], the IC50 is not above 500 nM.

For the compound `CNc1ncc(C#Cc2ccc3nc4n(c3c2)CCOC4)c2cc(NC(=O)C3CC3)ncc12` [Example 720, N-(5-((3,4-dihydro-1H-benzo[4,5]imidazo[2,1-c][1,4]oxazin-7-yl)ethynyl)-8-(methylamino)-2,7-naphthyridin-3-yl)cyclopropanecarboxamide], at TYK2 JH2, the Kd is not above 100 nM. In addition, the IC50 in test [1] is not above 500 nM.

Take `CNc1ncc(C#Cc2cc3c(F)cccn3n2)c2cc(NC(=O)C3CC3)ncc12` [Example 721, N-(5-((4-fluoropyrazolo[1,5-a]pyridin-2-yl)ethynyl)-8-(methylamino)-2,7-naphthyridin-3-yl)cyclopropanecarboxamide]: on TYK2 JH2, the Kd was not above 100 nM. The IC50 in test [1] is not above 500 nM.

Take `[2H]C([2H])([2H])Oc1ccc(C#Cc2cnc(NC)c3cnc(NC(=O)C4CC4)cc23)nc1` [Example 722, N-(5-((5-(methoxy-d3)pyridin-2-yl)ethynyl)-8-(methylamino)-2,7-naphthyridin-3-yl)cyclopropanecarboxamide]: the Kd on TYK2 JH2 was not above 100 nM. Moreover, the IC50 in test [1] was not above 500 nM.

Take `CNc1ncc(C#Cc2ccc3c(cnn3C(F)F)c2)c2cc(NC(=O)C3CC3)ncc12` [Example 723, N-(5-((1-(difluoromethyl)-1H-indazol-5-yl)ethynyl)-8-(methylamino)-2,7-naphthyridin-3-yl)cyclopropanecarboxamide]: the Kd at TYK2 JH2 was not above 100 nM. In test [1], the IC50 is not above 500 nM.

Turning to `CNc1ncc(C#Cc2ccncc2CCO)c2cc(NC(=O)C3CC3)ncc12` [Example 724, N-(5-((3-(2-hydroxyethyl)pyridin-4-yl)ethynyl)-8-(methylamino)-2,7-naphthyridin-3-yl)cyclopropanecarboxamide], the Kd on TYK2 JH2 was not above 100 nM. In addition, the IC50 in test [1] is not above 500 nM.

Regarding `CNc1ncc(C#Cc2ccc3nc(COC)sc3c2)c2cc(NC(=O)C3CC3)ncc12` [Example 725, N-(5-((2-(methoxymethyl)benzo[d]thiazol-6-yl)ethynyl)-8-(methylamino)-2,7-naphthyridin-3-yl)cyclopropanecarboxamide], the Kd at TYK2 JH2 was not above 100 nM. Besides, the IC50 in test [1] is not above 500 nM.

As to `CNc1ncc(C#Cc2ccc(N3CCC3)cn2)c2cc(NC(=O)C3CC3)ncc12` [Example 726, N-(5-((5-(azetidin-1-yl)pyridin-2-yl)ethynyl)-8-(methylamino)-2,7-naphthyridin-3-yl)cyclopropanecarboxamide], the Kd on TYK2 JH2 was not above 100 nM. Besides, in test [1], the IC50 is not above 500 nM.

Consider `CNc1ncc(C#Cc2ccc(N3CCC3COC)cn2)c2cc(NC(=O)C3CC3)ncc12` (stereo not shown) [Example 727, N-(5-((5-(2-(methoxymethyl)azetidin-1-yl)pyridin-2-yl)ethynyl)-8-(methylamino)-2,7-naphthyridin-3-yl)cyclopropanecarboxamide], for which the Kd on TYK2 JH2 is not above 100 nM. Moreover, the IC50 in test [1] is not above 500 nM.

With `CNc1ncc(C#Cc2ccc(CN3CCOCC3)cn2)c2cc(NC(=O)C3CC3)ncc12` [Example 728, N-(8-(methylamino)-5-((5-(morpholinomethyl)pyridin-2-yl)ethynyl)-2,7-naphthyridin-3-yl)cyclopropanecarboxamide], the Kd on TYK2 JH2 is not above 100 nM. In addition, the IC50 in test [1] is not above 500 nM.

Turning to `CNc1ncc(C#Cc2ccc(C(C)(F)F)cn2)c2cc(NC(=O)C3CC3)ncc12` [Example 729, N-(5-((5-(1,1-difluoroethyl)pyridin-2-yl)ethynyl)-8-(methylamino)-2,7-naphthyridin-3-yl)cyclopropanecarboxamide], on TYK2 JH2, the Kd was not above 100 nM. Further, in test [1], the IC50 is not above 500 nM.

Regarding `CNc1ncc(C#Cc2cc(C#N)c(OC)cn2)c2cc(NC(=O)C3CC3)ncc12` [Example 730, N-(5-((4-cyano-5-methoxypyridin-2-yl)ethynyl)-8-(methylamino)-2,7-naphthyridin-3-yl)cyclopropanecarboxamide], on TYK2 JH2, the Kd is not above 100 nM. Also, in test [1], the IC50 is more than 500 nM.

Consider `CNc1ncc(C#Cc2ccc(OCC(C)(C)F)cc2)c2cc(NC(=O)C3CC3)ncc12` [Example 731, N-(5-((4-(2-fluoro-2-methylpropoxy)phenyl)ethynyl)-8-(methylamino)-2,7-naphthyridin-3-yl)cyclopropanecarboxamide], for which, at TYK2 JH2, the Kd was not above 100 nM. In test [1], the IC50 is more than 500 nM.

On to `CNc1ncc(C#Cc2ccc(OCF)cn2)c2cc(NC(=O)C3CC3)ncc12` [Example 732, N-(5-((5-(fluoromethoxy)pyridin-2-yl)ethynyl)-8-(methylamino)-2,7-naphthyridin-3-yl)cyclopropanecarboxamide], for which the Kd on TYK2 JH2 was not above 100 nM. In test [1], the IC50 was not above 500 nM.

On to `CNc1ncc(C#Cc2ccc(N3CC4CN(C)CC(C3)O4)cn2)c2cc(NC(=O)C3CC3)ncc12` [Example 733, N-(5-((5-(7-methyl-9-oxa-3,7-diazabicyclo[3.3.1]nonan-3-yl)pyridin-2-yl)ethynyl)-8-(methylamino)-2,7-naphthyridin-3-yl)cyclopropanecarboxamide], for which the Kd on TYK2 JH2 was not above 100 nM. For the same compound, the IC50 in test [1] was not above 500 nM.

Turning to `CNc1ncc(C#Cc2ccc(N3CC4CN(C)CC(C3)O4)cc2)c2cc(NC(=O)C3CC3)ncc12` [Example 734, N-(5-((4-(7-methyl-9-oxa-3,7-diazabicyclo[3.3.1]nonan-3-yl)phenyl)ethynyl)-8-(methylamino)-2,7-naphthyridin-3-yl)cyclopropanecarboxamide], the Kd at TYK2 JH2 was not above 100 nM. The IC50 in test [1] was not above 500 nM.

On to `CNc1ncc(C#Cc2ccc(OC3CN(C(C)=O)C3)cn2)c2cc(NC(=O)C3CC3)ncc12` [Example 735, N-(5-((5-((1-acetylazetidin-3-yl)oxy)pyridin-2-yl)ethynyl)-8-(methylamino)-2,7-naphthyridin-3-yl)cyclopropanecarboxamide], for which, on TYK2 JH2, the Kd is not above 100 nM. Further, the IC50 in test [1] was not above 500 nM.

As for `CNc1ncc(C#Cc2ccc(OC3CN(C(C)=O)C3)cn2)c2cc(NC(=O)C3(F)CC3)ncc12` [Example 736, N-(5-((5-((1-acetylazetidin-3-yl)oxy)pyridin-2-yl)ethynyl)-8-(methylamino)-2,7-naphthyridin-3-yl)-1-fluorocyclopropane-1-carboxamide], the Kd on TYK2 JH2 was not above 100 nM. In addition, in test [1], the IC50 was not above 500 nM.

Regarding `CNc1ncc(C#Cc2ccc(NC(=O)COC)cc2)c2cc(NC(=O)C3CC3)ncc12` [Example 737, N-(5-((4-(2-methoxyacetamido)phenyl)ethynyl)-8-(methylamino)-2,7-naphthyridin-3-yl)cyclopropanecarboxamide], on TYK2 JH2, the Kd is not above 100 nM. In addition, the IC50 in test [1] is not above 500 nM.

Regarding `CNc1ncc(C#Cc2ccc(P(C)(C)=O)cn2)c2cc(NC(=O)C3CC3)ncc12` [Example 738, N-(5-((5-(dimethylphosphoryl)pyridin-2-yl)ethynyl)-8-(methylamino)-2,7-naphthyridin-3-yl)cyclopropanecarboxamide], the Kd at TYK2 JH2 is not above 100 nM. Further, the IC50 in test [1] was not above 500 nM.

As for `CNc1ncc(C#Cc2ccc3nc(C(F)F)n(C)c3c2)c2cc(NC(=O)C3CC3)ncc12` [Example 739, N-(5-((2-(difluoromethyl)-1-methyl-1H-benzo[d]imidazol-6-yl)ethynyl)-8-(methylamino)-2,7-naphthyridin-3-yl)cyclopropanecarboxamide], the Kd at TYK2 JH2 is not above 100 nM. In addition, the IC50 in test [1] is not above 500 nM.

On to `CNc1ncc(C#Cc2ccc3nc(C4CC4)n(C)c3c2)c2cc(NC(=O)C3CC3)ncc12` [Example 740, N-(5-((2-cyclopropyl-1-methyl-1H-benzo[d]imidazol-6-yl)ethynyl)-8-(methylamino)-2,7-naphthyridin-3-yl)cyclopropanecarboxamide], for which, on TYK2 JH2, the Kd was not above 100 nM. In addition, the IC50 in test [1] was not above 500 nM.

As to `CNc1ncc(C#Cc2ccc(OC[C@H]3COCCO3)cc2)c2cc(NC(=O)C3CC3)ncc12` [Example 741, (R)—N-(5-((4-((1,4-dioxan-2-yl)methoxy)phenyl)ethynyl)-8-(methylamino)-2,7-naphthyridin-3-yl)cyclopropanecarboxamide], the Kd at TYK2 JH2 is not above 100 nM. Further, the IC50 in test [1] was not above 500 nM.

In the case of `CNc1ncc(C#Cc2ccc(OC)cn2)c2cc(NC(=O)[C@H]3C[C@H]3C)ncc12` [Example 742, (1S,2R)—N-(5-((5-methoxypyridin-2-yl)ethynyl)-8-(methylamino)-2,7-naphthyridin-3-yl)-2-methylcyclopropane-1-carboxamide], the Kd on TYK2 JH2 is not above 100 nM. In addition, the IC50 in test [1] is not above 500 nM.

As to `CNc1ncc(C#Cc2ccc(OC)cn2)c2cc(NC(=O)C3(F)CC3)ncc12` [Example 743, 1-fluoro-N-(5-((5-methoxypyridin-2-yl)ethynyl)-8-(methylamino)-2,7-naphthyridin-3-yl)cyclopropane-1-carboxamide], on TYK2 JH2, the Kd is not above 100 nM. Besides, the IC50 in test [1] was not above 500 nM.

On to `CNc1ncc(C#Cc2ccc(OC)cn2)c2cc(NC(=O)C3CC3C(F)F)ncc12` [Example 744, (1R,18)-2-(difluoromethyl)-N-(5-((5-methoxypyridin-2-yl)ethynyl)-8-(methylamino)-2,7-naphthyridin-3-yl)cyclopropane-1-carboxamide], for which the Kd at TYK2 JH2 is not above 100 nM. In test [1], the IC50 was not above 500 nM.
